Holding throughout (assay): biochemical
Design in all cases: Eurofins KinaseProfiler full panel at Km ATP, residual kinase activity (%) relative to DMSO

For test [1], the target named is T1, AMPKα2(h) (Homo sapiens, UniProt P54646).
T1 construct: gene PRKAA2
Put shortly: (§1)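 Radiometric kinase activity assays were run with ATP at Km and compounds at 10 µM, and remaining activity (%) was reported. A separate competitive binding screen measured DNA-tagged kinase displaced from immobilized active-site ligands by qPCR, giving percent kinase still bound at 10 µM compound in DMSO.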

The target in test [2] is ATM(h) (Homo sapiens, UniProt Q13315). In a few lines:
as §1

In test [3] the target is FGFR3(h) (Homo sapiens, UniProt P22607). In a few lines:
as §1

The target in test [4] is LIMK1(h) (Homo sapiens, UniProt P53667). In a few lines:
as §1

Test [5] addresses T2, MLK4(h) (Homo sapiens, UniProt Q5TCX8).
T2 construct: gene MAP3K21
In a few lines: as §1

For test [6], the target named is T3, MSSK1(h) (Homo sapiens, UniProt Q9UPE1).
T3 construct: gene SRPK3
T3 sequence (Q9UPE1 whole entry): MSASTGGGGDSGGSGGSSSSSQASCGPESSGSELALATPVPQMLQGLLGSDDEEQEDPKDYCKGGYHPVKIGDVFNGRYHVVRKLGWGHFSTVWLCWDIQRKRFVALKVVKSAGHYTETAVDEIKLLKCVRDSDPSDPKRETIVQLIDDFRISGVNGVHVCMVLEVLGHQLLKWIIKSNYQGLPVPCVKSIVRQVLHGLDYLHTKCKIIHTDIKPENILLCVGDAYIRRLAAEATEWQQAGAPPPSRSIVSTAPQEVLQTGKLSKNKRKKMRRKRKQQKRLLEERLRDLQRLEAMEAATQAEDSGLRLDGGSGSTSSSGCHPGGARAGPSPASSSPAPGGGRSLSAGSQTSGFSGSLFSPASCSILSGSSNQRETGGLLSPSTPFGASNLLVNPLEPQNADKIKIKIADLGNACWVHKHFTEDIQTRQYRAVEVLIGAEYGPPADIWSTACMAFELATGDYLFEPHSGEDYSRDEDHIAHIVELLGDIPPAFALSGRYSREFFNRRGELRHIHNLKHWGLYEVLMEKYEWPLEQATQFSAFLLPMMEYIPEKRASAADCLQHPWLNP
In a few lines: as §1

The target of test [7] is T4, PDGFRα(D842V)(h) (Homo sapiens, UniProt P16234, D842V).
T4 construct: gene PDGFRA
Put shortly:
as §1

Test [8] has as its target T5, PI3 Kinase (p110a(E545K)/p85a)(h) (Homo sapiens, UniProt P42336, E545K).
T5 construct: gene PIK3CA
In a few lines:
as §1

The target in test [9] is T6, PhKγ2(h) (Homo sapiens, UniProt P15735).
T6 construct: gene PHKG2
T6 sequence (P15735 1-406): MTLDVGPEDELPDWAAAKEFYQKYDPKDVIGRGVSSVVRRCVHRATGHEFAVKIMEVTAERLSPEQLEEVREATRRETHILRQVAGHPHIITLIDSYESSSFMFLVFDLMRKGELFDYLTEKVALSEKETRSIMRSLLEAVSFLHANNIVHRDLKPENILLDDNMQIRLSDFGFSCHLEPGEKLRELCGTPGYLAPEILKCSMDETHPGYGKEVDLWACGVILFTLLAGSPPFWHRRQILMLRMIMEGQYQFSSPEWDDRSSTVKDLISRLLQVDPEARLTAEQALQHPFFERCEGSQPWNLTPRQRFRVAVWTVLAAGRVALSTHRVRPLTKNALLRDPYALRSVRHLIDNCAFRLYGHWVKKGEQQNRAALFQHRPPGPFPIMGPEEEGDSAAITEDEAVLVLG
In a few lines:
as §1

Test [10] concerns the target T7, SNRK(h) (Homo sapiens, UniProt Q9NRH2).
T7 sequence (Q9NRH2 1-765): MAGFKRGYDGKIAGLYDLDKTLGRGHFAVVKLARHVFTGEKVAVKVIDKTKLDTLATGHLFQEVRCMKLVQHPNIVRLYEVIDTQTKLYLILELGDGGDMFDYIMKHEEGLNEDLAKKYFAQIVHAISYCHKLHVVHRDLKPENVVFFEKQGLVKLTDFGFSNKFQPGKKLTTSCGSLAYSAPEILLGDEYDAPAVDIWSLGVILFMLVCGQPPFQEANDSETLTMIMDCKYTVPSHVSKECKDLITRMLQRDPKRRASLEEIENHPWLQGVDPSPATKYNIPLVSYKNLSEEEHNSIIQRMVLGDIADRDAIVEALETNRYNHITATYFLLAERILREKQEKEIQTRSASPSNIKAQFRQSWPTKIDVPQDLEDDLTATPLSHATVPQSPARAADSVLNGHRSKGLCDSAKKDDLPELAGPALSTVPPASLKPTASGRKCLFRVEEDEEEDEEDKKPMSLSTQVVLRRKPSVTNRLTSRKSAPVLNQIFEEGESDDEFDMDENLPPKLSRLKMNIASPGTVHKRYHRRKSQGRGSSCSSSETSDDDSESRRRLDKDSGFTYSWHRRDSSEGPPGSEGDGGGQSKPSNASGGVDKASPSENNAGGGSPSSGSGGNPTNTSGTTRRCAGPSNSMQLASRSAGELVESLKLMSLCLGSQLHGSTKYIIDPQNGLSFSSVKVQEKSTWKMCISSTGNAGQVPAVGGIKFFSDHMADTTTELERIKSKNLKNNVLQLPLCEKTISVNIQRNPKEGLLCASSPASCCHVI
In a few lines: as §1

Where [11] appears, read: read-out: Residual activity (%) Spautin-1 5aa.
Where [12] appears, read: read-out: Residual activity (%) 5as.
Where [13] appears, read: read-out: Residual activity (%) 5at.
Where [14] appears, read: read-out: Residual activity (%) 5ay.

Like-named read-outs stand apart in the source and are kept apart here.

ATM(h), sequence (Q13315 whole entry): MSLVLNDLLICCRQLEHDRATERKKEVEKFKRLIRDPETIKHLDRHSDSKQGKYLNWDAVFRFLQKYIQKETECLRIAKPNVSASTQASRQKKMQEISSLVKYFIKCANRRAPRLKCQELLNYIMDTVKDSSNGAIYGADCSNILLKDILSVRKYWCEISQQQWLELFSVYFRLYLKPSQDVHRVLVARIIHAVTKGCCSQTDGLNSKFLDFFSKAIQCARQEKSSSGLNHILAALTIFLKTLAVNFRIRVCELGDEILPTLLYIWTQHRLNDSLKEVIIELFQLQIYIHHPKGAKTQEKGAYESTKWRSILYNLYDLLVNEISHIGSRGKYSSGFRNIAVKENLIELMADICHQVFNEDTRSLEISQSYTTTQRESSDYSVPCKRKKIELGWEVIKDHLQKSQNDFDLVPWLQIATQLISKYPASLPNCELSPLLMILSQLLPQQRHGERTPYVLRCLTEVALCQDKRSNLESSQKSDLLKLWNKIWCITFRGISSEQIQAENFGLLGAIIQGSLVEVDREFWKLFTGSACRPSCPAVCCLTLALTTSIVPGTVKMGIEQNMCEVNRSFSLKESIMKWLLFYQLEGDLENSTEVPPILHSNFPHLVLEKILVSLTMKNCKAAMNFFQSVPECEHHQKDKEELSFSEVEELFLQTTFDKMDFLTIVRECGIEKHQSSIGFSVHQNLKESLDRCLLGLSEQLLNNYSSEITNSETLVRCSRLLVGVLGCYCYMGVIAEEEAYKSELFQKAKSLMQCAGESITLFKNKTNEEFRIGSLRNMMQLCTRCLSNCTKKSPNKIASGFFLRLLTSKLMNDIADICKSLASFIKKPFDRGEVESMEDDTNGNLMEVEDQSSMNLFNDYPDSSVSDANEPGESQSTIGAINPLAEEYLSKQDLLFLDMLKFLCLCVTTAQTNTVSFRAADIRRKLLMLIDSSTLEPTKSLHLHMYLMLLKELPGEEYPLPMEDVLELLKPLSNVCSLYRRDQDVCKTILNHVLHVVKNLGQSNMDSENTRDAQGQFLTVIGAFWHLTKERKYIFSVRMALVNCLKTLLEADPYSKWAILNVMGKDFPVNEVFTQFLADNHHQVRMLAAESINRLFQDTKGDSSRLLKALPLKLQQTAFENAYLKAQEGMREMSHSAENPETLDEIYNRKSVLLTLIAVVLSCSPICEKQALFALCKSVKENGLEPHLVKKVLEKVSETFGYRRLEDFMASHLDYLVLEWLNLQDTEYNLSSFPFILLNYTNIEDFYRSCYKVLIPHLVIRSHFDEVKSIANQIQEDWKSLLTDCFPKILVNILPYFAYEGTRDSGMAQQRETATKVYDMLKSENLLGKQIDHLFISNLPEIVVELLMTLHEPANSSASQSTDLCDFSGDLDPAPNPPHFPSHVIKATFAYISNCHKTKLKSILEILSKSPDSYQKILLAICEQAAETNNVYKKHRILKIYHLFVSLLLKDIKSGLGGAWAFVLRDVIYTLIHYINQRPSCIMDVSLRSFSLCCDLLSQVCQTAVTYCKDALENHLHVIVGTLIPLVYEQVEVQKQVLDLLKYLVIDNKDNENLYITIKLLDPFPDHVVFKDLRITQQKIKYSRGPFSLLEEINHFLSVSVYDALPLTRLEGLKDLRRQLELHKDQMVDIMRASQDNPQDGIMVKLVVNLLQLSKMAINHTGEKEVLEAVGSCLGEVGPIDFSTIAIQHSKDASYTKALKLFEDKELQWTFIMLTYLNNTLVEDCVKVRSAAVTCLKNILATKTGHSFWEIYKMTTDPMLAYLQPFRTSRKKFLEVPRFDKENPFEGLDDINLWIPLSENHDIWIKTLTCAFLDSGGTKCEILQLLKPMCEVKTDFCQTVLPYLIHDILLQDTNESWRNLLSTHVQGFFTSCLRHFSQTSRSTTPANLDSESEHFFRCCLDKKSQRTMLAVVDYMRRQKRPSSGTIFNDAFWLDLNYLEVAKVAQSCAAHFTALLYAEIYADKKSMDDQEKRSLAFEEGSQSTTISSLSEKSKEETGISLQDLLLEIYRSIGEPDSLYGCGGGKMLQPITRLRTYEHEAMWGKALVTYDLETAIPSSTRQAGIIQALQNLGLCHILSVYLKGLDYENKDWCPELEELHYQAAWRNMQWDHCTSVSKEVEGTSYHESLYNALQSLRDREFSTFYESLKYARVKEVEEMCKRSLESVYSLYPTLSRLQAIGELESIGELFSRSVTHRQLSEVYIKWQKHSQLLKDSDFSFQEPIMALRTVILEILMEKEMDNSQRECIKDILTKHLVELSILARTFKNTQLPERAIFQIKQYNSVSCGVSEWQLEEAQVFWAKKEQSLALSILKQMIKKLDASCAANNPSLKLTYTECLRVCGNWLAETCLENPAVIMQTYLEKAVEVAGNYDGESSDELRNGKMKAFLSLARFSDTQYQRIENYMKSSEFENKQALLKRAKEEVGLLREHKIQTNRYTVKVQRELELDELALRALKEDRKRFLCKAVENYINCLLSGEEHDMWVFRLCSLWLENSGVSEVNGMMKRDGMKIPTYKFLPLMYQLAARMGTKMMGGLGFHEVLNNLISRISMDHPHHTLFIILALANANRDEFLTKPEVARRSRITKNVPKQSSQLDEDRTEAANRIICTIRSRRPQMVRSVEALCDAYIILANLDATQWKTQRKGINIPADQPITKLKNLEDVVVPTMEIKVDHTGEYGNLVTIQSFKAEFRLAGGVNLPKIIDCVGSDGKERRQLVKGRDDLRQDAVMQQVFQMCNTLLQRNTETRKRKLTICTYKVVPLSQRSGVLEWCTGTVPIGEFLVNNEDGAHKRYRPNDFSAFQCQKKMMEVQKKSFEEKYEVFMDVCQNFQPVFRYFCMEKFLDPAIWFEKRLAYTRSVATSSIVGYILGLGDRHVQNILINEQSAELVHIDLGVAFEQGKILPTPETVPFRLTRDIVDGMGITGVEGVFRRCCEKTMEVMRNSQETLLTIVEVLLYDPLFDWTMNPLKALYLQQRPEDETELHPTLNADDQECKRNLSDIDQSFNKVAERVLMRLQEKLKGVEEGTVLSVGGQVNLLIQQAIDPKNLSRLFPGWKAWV
T1 sequence (P54646 whole entry): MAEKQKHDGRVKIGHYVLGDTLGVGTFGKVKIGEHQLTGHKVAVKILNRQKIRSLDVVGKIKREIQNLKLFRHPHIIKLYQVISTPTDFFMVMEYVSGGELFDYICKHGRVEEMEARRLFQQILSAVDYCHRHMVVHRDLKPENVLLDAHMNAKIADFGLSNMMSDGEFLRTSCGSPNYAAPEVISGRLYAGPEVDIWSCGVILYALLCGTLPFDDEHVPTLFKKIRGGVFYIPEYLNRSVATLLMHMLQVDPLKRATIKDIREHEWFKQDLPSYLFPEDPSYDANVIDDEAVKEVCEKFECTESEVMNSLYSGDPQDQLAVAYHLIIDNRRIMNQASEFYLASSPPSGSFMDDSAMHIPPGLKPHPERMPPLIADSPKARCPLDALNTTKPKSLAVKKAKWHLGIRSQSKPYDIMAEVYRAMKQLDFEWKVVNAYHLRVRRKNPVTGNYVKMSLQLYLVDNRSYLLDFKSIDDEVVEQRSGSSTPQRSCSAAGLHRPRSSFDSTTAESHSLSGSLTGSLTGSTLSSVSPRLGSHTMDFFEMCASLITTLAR
T1 sequence (P54619 whole entry partner): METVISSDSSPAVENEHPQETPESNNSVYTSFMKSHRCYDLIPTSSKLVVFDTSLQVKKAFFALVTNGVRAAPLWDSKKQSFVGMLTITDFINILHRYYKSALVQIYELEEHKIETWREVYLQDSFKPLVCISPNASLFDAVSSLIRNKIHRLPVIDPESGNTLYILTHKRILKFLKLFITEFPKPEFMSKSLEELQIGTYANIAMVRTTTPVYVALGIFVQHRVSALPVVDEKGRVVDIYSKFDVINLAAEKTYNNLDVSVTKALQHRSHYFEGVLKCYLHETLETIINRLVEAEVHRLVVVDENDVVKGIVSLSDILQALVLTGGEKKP
T1 sequence (Q9Y478 whole entry partner): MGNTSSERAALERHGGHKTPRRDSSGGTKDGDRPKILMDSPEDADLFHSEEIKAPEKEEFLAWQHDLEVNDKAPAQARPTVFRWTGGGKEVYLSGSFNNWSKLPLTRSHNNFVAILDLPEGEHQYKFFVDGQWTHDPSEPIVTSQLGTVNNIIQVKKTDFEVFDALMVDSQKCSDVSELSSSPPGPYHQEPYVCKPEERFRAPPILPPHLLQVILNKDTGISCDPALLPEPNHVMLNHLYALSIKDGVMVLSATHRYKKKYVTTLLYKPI

Turning to `Fc1ccc(CNc2ncnc3ccc(F)cc23)cc1` [5aa, 6-Fluoro-N-(4-fluorobenzyl)-4-Quinazolinamine], the remaining activity at 10 µM was determined as 108% in [1] (setting [11]); 93% in [2] (setting [11]); 97% in test [3] (setting [11]); 97% in test [4] (setting [11]); 105% in test [5] (setting [11]); 85% in test [6] (setting [11]). Further, the remaining activity at 10 µM in [7] (setting [11]) came to 114%; in [8] (setting [11]) it was 96%; in [9] (setting [11]) it was 78%; in [10] (setting [11]), 103%.

Consider `Fc1ccc(CCNc2ncnc3ccc(F)cc23)cc1` [5as, 6-Fluoro-N-[2-(4-Fluorophenyl)Ethyl]-4-Quinazolinamine], for which the remaining activity at 10 µM in [1] (setting [12]) was found to be 108%; in test [2] (setting [12]), 88%; in test [3] (setting [12]) it was 108%; in [4] (setting [12]), 76%; in [5] (setting [12]), 93%; in test [6] (setting [12]), 91%. Moreover, the remaining activity at 10 µM in [7] (setting [12]) was 92%; in test [8] (setting [12]), 93%; in [9] (setting [12]) it was 91%; in test [10] (setting [12]) it was 104%.

For `Fc1ccc2ncnc(NCCc3ccc(Cl)cc3)c2c1` [5at, N-[2-(4-Chlorophenyl)Ethyl]-6-Fluoro-4-Quinazolinamine], the remaining activity at 10 µM came out at 109% in test [1] (setting [13]); 86% in [2] (setting [13]); 99% in test [3] (setting [13]); 72% in test [4] (setting [13]); 94% in [5] (setting [13]); 95% in [6] (setting [13]). Moreover, the remaining activity at 10 µM came to 86% in test [7] (setting [13]), 91% in [8] (setting [13]), 82% in [9] (setting [13]) and 103% in [10] (setting [13]).

Regarding `COc1ccc2ncnc(Nc3cccc(F)c3)c2c1` [5ay, N-(3-Fluorophenyl)-6-Methoxy-4-Quinazolinamine], the remaining activity at 10 µM in test [1] (setting [14]) worked out at 97%; in [2] (setting [14]), 90%; in test [3] (setting [14]), 94%; in test [4] (setting [14]) it was 64%; in test [5] (setting [14]) it was 91%; in test [6] (setting [14]) it was 81%. Further, the remaining activity at 10 µM was 50% in [7] (setting [14]), 81% in test [8] (setting [14]), 109% in test [9] (setting [14]) and 79% in test [10] (setting [14]).

Values taken from paper PMC7827406, “Structure–Activity Relationship (SAR) Study of Spautin-1 to Entail the Discovery of Novel NEK4 Inhibitors” (International Journal of Molecular Sciences, 2021).
